Measurements from patent US6620828B2, “Thiazole compounds and pharmaceutical compositions for inhibiting protein kinases and methods for their use” (Agouron Pharmaceuticals, Inc., priority 1999, dated 2003).

Tests used:
Format in all cases: biochemical
[1] = target: T1, phosphorylated VEGF-R2Δ50 (FLVK-P) (Homo sapiens, UniProt P35968, DEL940-989/E990V); experiment: VEGF-R2 coupled spectrophotometric (FLVK-P) assay; details: read-out: VEGF % inhibition at 20 μM, 20 μM; combinatorial library compounds
T1 construct: VEGF-R2Δ50 contains residues 806-939 and 990-1171; made in house; host or cells: baculovirus/insect cells
In short: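 Baculovirus-expressed human VEGF-R2Δ50 (residues 806-939/990-1171, E990V) was autophosphorylated with 3 mM ATP, 40 mM MgCl2 for 2 h at 4° C. ADP formation was coupled via PK/LDH to NADH oxidation, read at 340 nm, with 5.1 mM poly(E4Y1), 1 mM ATP, 25 mM MgCl2, Hepes pH 7.5. Ki came from activity across compound concentrations.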

[2] = target: T2, FL-CHK1 (Homo sapiens, UniProt O14757); experiment: CHK1 assay; details: 20 μM; combinatorial library compounds
T2 construct: C-terminally His-tagged full-length human CHK1 (FL-CHK1); 6xHis (C); made in house; host or cells: baculovirus/insect cells
T2 sequence (O14757 1-476): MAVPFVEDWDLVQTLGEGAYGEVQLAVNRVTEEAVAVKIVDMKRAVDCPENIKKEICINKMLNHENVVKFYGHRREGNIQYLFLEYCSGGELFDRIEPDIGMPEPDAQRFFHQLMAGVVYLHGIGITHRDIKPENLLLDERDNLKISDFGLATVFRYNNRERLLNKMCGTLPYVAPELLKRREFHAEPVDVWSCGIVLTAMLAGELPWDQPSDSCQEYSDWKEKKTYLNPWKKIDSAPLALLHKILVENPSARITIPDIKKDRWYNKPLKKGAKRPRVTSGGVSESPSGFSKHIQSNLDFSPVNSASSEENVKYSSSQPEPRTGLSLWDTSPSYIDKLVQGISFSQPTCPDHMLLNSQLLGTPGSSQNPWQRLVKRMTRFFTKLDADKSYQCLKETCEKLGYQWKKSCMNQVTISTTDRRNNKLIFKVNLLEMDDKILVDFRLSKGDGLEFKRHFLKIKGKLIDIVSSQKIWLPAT
In short: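 Full-length human CHK1 with C-terminal 6×His tag, made in baculovirus/insect cells, 10 nM, phosphorylating 0.125 mM Syntide-2 with 0.15 mM ATP in 50 mM Tris pH 7.5, 25 mM MgCl2, 400 mM NaCl. PK/LDH-coupled NADH oxidation read at 340 nm. Ki from initial rates over varied compound concentrations.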

[3] = target: CDK2/Cyclin A complex (Homo sapiens, UniProt P24941); experiment: CDK2/Cyclin A assay; details: 1.0 μM; combinatorial library compounds
In short: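 Radiometric assay: 150 nM CDK2/cyclin A (insect-cell CDK2, truncated cyclin A) phosphorylates His-tagged Rb fragment (residues 386-928) with 25 μM ATP plus [32P]ATP, pH 7.4 HEPES, 2% DMSO, 30 °C for 20 min. Filter-captured product counted by phosphorimager; apparent Ki from competitive or tight-binding inhibition fits.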

[4] = target: T3, CDK4/Cyclin D3 complex (Homo sapiens, UniProt P11802); experiment: CDK4/Cyclin D assay; details: 1.0 μM; combinatorial library compounds
T3 construct: made in house; host or cells: insect cells co-infected with baculovirus vectors
In short: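 Insect-cell-expressed CDK4/cyclin D3 (50 nM) phosphorylating His-tagged Rb fragment (residues 386-928) with 25 μM [^32P]ATP in HEPES pH 7.4, MgCl2, 2% DMSO; 20 min at 30 °C, EDTA stop. Filter-captured 32P by phosphorimager; apparent Ki from competitive or tight-binding inhibition fits.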

T3 sequence (P11802 whole entry): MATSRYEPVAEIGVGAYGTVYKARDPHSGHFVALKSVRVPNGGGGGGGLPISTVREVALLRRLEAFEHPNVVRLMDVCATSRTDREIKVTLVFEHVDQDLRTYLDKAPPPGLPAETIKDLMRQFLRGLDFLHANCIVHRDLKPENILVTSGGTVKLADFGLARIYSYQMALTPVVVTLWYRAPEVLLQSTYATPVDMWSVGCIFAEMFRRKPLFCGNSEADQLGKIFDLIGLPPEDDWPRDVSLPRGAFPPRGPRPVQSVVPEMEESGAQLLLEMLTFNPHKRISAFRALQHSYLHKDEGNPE
T3 sequence (P30281 whole entry partner): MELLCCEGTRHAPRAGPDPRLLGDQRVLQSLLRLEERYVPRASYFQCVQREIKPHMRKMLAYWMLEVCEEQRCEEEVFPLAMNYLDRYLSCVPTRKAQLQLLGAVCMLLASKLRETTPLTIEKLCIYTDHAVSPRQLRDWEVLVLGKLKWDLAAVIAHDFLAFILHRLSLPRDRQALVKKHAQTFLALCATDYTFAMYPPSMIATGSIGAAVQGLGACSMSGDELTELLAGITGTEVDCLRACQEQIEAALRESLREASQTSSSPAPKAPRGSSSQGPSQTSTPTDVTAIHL
T1 sequence (P35968 with tags, fused parts or gaps DEL940-989/E990V limits assumed): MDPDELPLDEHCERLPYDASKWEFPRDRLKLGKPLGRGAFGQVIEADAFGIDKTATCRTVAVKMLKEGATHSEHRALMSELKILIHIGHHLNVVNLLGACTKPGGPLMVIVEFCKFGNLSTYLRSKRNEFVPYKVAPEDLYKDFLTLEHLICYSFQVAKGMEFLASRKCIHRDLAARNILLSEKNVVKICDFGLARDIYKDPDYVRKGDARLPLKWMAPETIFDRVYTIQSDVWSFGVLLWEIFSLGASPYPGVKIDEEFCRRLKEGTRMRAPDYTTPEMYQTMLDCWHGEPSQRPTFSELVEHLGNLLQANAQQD

inhibition at 20 µM [1] [%]	inhibition at 20 µM [2] [%]	inhibition at 1 µM [3] [%]	inhibition at 1 µM [4] [%]	SMILES
50	27.4	17.5	76.5	Cc1cc(-c2csc(-c3sc(Nc4ccc(C(C)C)cc4)nc3N)n2)c(C)s1
19	11.6	5.2	74.4	CC(C)c1ccc(Nc2nc(N)c(-c3nc(-c4ccc5c(c4)C(C)(C)CCC5(C)C)cs3)s2)cc1
-4	3.7	8.7	48.3	CC(C)c1ccc(Nc2nc(N)c(-c3nc(-c4ccc(C(F)(F)F)cc4)cs3)s2)cc1
21	20.9	29.1	59.5	CC(C)c1ccc(Nc2nc(N)c(-c3nc(-c4ccc5c(c4)CCC(=O)N5)cs3)s2)cc1
7	-4.2	4.8	56.1	CC(C)c1ccc(Nc2nc(N)c(-c3nc(-c4ccccc4OC(=O)c4ccccc4)cs3)s2)cc1
13	6.5	6.2	61.4	CCc1cc2c(cc1-c1csc(-c3sc(Nc4ccc(C(C)C)cc4)nc3N)n1)C(C)(C)CCC2(C)C
15	14.1	26	85.1	COc1ccc2nc(-c3ccccc3)c(-c3csc(-c4sc(Nc5ccc(C(C)C)cc5)nc4N)n3)cc2c1
5	-4.7	4	2.4	Cc1c(-c2csc(-c3sc(Nc4ccc(C(C)C)cc4)nc3N)n2)sc2ccccc12
-6	7.9	20.9	46.8	CC(C)c1ccc(Nc2nc(N)c(-c3nc(-c4cc(C(C)(C)C)c(O)c(C(C)(C)C)c4)cs3)s2)cc1
18	22.8	17.6	69.1	CN(C)c1ccc(Nc2nc(N)c(-c3nc(-c4cc(Br)c(Cl)s4)cs3)s2)cc1
-2	16	4.1	59.8	CN(C)c1ccc(Nc2nc(N)c(-c3nc(-c4ccc(Cl)c([N+](=O)[O-])c4)cs3)s2)cc1
5	-7.6	17.7	35.6	CN(C)c1ccc(Nc2nc(N)c(-c3nc(-c4ccc(-c5ccc(Cl)cc5Cl)o4)cs3)s2)cc1
0	14.8	-6.4	8.7	COc1ccccc1-c1csc(-c2sc(Nc3ccc(N(C)C)cc3)nc2N)n1
16	15.2	17.7	61.6	Cc1ccc(-c2csc(-c3sc(Nc4ccc(N(C)C)cc4)nc3N)n2)cc1
1	3.1	6.7	35.4	COc1ccc(-c2csc(-c3sc(Nc4ccc(N(C)C)cc4)nc3N)n2)c(OC)c1
10	2.5	11.2	36.5	CN(C)c1ccc(Nc2nc(N)c(-c3nc(-c4ccc(Cl)cc4)cs3)s2)cc1
13	14.1	15.6	68.7	COc1ccc(OC)c(-c2csc(-c3sc(Nc4ccc(N(C)C)cc4)nc3N)n2)c1
9	-4.5	13.4	33.7	CCOC(=O)c1cc(-c2csc(-c3sc(Nc4ccc(N(C)C)cc4)nc3N)n2)on1
8	17.8	22.1	50.4	CN(C)c1ccc(Nc2nc(N)c(-c3nc(-c4ccc([N+](=O)[O-])cc4)cs3)s2)cc1

inhibition at 20 µM [1] [%]	inhibition at 20 µM [2] [%]	inhibition at 1 µM [3] [%]	inhibition at 1 µM [4] [%]	SMILES
2	16.6	11.7	15.2	Cc1cc(-c2csc(-c3sc(Nc4ccc(N(C)C)cc4)nc3N)n2)ccc1Cl
-12	5	14.5	-12.6	CN(C)c1ccc(Nc2nc(N)c(-c3nc(-c4ccc(-c5ccccc5)cc4)cs3)s2)cc1
11	8.2	14.3	36.4	CN(C)c1ccc(Nc2nc(N)c(-c3nc(-c4ccc(C#N)cc4)cs3)s2)cc1
10	7.8	16.3	-20.3	COc1cccc(-c2csc(-c3sc(Nc4ccc(N(C)C)cc4)nc3N)n2)c1
25	38.5	19.8	45.9	CCOC(=O)c1ccccc1-c1csc(-c2sc(Nc3ccc(N(C)C)cc3)nc2N)n1
33	37	33.9	62.7	Cc1c(C)c(C)c(-c2csc(-c3sc(Nc4ccc(N(C)C)cc4)nc3N)n2)c(C)c1C
5	0.8	24	29.6	CN(C)c1ccc(Nc2nc(N)c(-c3nc(-c4cc(-c5ccccc5)no4)cs3)s2)cc1
9	27	8.2	76.5	Cc1c(F)cc(-c2csc(-c3sc(Nc4ccc(N(C)C)cc4)nc3N)n2)cc1Cl
1	-2.8	12.6	-17.5	CN(C)c1ccc(Nc2nc(N)c(-c3nc(-c4cc(-c5ccc(Cl)c(Cl)c5)no4)cs3)s2)cc1
-8	9.5	-6	36.2	CCCCCc1ccc(-c2csc(-c3sc(Nc4ccc(N(C)C)cc4)nc3N)n2)cc1
24	-4.6	27.8	48.5	CC(=O)Oc1ccccc1-c1csc(-c2sc(Nc3ccc(N(C)C)cc3)nc2N)n1
26	37.5	29.1	82.6	CN(C)c1ccc(Nc2nc(N)c(-c3nc(-c4c(Cl)cc(C(F)(F)F)cc4Cl)cs3)s2)cc1
34	25.2	20.3	64.3	CN(C)c1ccc(Nc2nc(N)c(-c3nc(-c4ccc(F)cc4F)cs3)s2)cc1
16	17.4	14.6	57.8	CCN(CC)c1ccc(-c2csc(-c3sc(Nc4ccc(N(C)C)cc4)nc3N)n2)cc1
22	12.6	23.5	57.7	CN(C)c1ccc(Nc2nc(N)c(-c3nc(-c4csc5ccccc45)cs3)s2)cc1
3	5.2	36.7	45.2	CN(C)c1ccc(Nc2nc(N)c(-c3nc(-c4cc(C(=O)C(Cl)(Cl)Cl)n(C)c4)cs3)s2)cc1
-3	7.6	16.9	29.6	CN(C)c1ccc(Nc2nc(N)c(-c3nc(-c4cc5cc(Cl)ccc5o4)cs3)s2)cc1
17	14.2	29	30.1	CN(C)c1ccc(Nc2nc(N)c(-c3nc(-c4cccc(Br)c4)cs3)s2)cc1
